According to ChEMBL document CHEMBL4340531, “Synthesis and biological evaluation of solithromycin analogs against multidrug resistant pathogens” (Bioorg Med Chem Lett, 2019):
Values after ≈ are worked out from the molar mass of the structure shown.

Columns and labels:
Enterococcus faecium [1] = test: Antibacterial activity against multi drug resistant Enterococcus faecium NCTC 7171 incubated for 24 hrs by broth dilution method; format: functional; settings: NCTC 7171, 24 h
Staphylococcus aureus [2] = test: Antibacterial activity against wild type Staphylococcus aureus ATCC 29213 incubated for 18 hrs by broth dilution method; format: functional; settings: ATCC 29213, 18 h
Staphylococcus aureus [3] = test: Antibacterial activity against resistant Staphylococcus aureus UCN14 incubated for 18 hrs by broth dilution method; format: functional; settings: UCN14, 18 h
Staphylococcus aureus [4] = test: Antibacterial activity against resistant Staphylococcus aureus UCN17 incubated for 18 hrs by broth dilution method; format: functional; settings: UCN17, 18 h
Staphylococcus aureus [5] = test: Antibacterial activity against resistant Staphylococcus aureus UCN18 incubated for 18 hrs by broth dilution method; format: functional; settings: UCN18, 18 h
Escherichia coli [6] = test: Antibacterial activity against resistant Escherichia coli DK incubated for 20 hrs by broth dilution method; format: functional
Escherichia coli [7] = test: Antibacterial activity against resistant Escherichia coli DK3535 incubated for 20 hrs by broth dilution method; format: functional; settings: DK3535, 20 h
Escherichia coli [8] = test: Antibacterial activity against resistant Escherichia coli DK2058G incubated for 20 hrs by broth dilution method; format: functional
Escherichia coli [9] = test: Antibacterial activity against resistant Escherichia coli SQ171 incubated for 20 hrs by broth dilution method; format: functional; settings: SQ171, 20 h
Escherichia coli [10] = test: Antibacterial activity against resistant Escherichia coli SQ1712058G incubated for 20 hrs by broth dilution method; format: functional
Acinetobacter baumannii [11] = test: Antibacterial activity against multi drug resistant Acinetobacter baumannii ATCC 19606 incubated for 24 hrs by broth dilution method; format: functional; settings: ATCC 19606 = CIP 70.34 = JCM 6841, 24 h
[12] = Selectivity index, ratio of CC50 for African green monkey Vero cells to MIC for multi drug resistant Enterococcus faecium NCTC 7171; format: toxicity; settings: read-out: Selectivity Index
[13] = Cytotoxicity against African green monkey Vero cells assessed as reduction in cell viability after 72 hrs by MTS/PMS assay; format: cell-based; settings: chlorocebus sabaeus
Acinetobacter baumannii [14] = test: Potency index, ratio of solithromycin MIC to compound MIC for multidrug-resistant Acinetobacter baumannii ATCC 19606; format: functional, ATCC 19606 = CIP 70.34 = JCM 6841
Enterococcus faecium [15] = test: Potency index, ratio of solithromycin MIC to compound MIC for multi drug resistant Enterococcus faecium NCTC 7171; format: functional
Escherichia coli [16] = test: Potency index, ratio of solithromycin MIC to compound MIC for resistant Escherichia coli SQ171; format: functional
Escherichia coli [17] = test: Potency index, ratio of solithromycin MIC to compound MIC for resistant Escherichia coli SQ1712058G; format: functional
Escherichia coli [18] = test: Potency index, ratio of solithromycin MIC to compound MIC for resistant Escherichia coli DK; format: functional
Escherichia coli [19] = test: Potency index, ratio of solithromycin MIC to compound MIC for resistant Escherichia coli DK3535; format: functional
Staphylococcus aureus [20] = test: Potency index, ratio of solithromycin MIC to compound MIC for wild type Staphylococcus aureus ATCC 29213; format: functional

| SMILES | MIC (Enterococcus faecium [1]) [ng/mL] | MIC (Staphylococcus aureus [2]) [µg/mL] | MIC (Staphylococcus aureus [3]) [µg/mL] | MIC (Staphylococcus aureus [4]) [µg/mL] | MIC (Staphylococcus aureus [5]) [µg/mL] | MIC (Escherichia coli [6]) [µg/mL] | MIC (Escherichia coli [7]) [µg/mL] | MIC (Escherichia coli [8]) [µg/mL] | MIC (Escherichia coli [9]) [µg/mL] | MIC (Escherichia coli [10]) [µg/mL] | MIC (Acinetobacter baumannii [11]) [µg/mL] | selectivity ratio [12] | CC50 at 72 h [13] [µg/mL] | Ratio (Acinetobacter baumannii [14]) | Ratio (Enterococcus faecium [15]) | Ratio (Escherichia coli [16]) | Ratio (Escherichia coli [17]) | Ratio (Escherichia coli [18]) | Ratio (Escherichia coli [19]) | Ratio (Staphylococcus aureus [20]) |
| --- | --- | --- | --- | --- | --- | --- | --- | --- | --- | --- | --- | --- | --- | --- | --- | --- | --- | --- | --- | --- |
| CC[C@H]1OC(=O)[C@H](C)[C@@H](O[C@H]2C[C@@](C)(OC)[C@@H](O)[C@H](C)O2)[C@H](C)[C@@H](O[C@@H]2O[C@H](C)C[C@H](N(C)C)[C@H]2O)[C@](C)(O)C[C@@H](C)CN(C)[C@H](C)[C@@H](O)[C@]1(C)O [AZITHROMYCIN] | 25000 (≈ 33.4 µM) |  |  |  |  |  |  |  |  |  |  |  |  |  |  |  |  |  |  |  |
| CC[C@H]1OC(=O)[C@@](C)(F)C(=O)[C@H](C)[C@@H](O[C@@H]2O[C@H](C)C[C@H](N(C)C)[C@H]2O)[C@](C)(OC)C[C@@H](C)C(=O)[C@H](C)[C@H]2N(CCCCn3cc(-c4ccsc4)nn3)C(=O)O[C@]12C | 0.094 (≈ 0.000112 µM) | 0.25 (≈ 0.299 µM) | 128 (≈ 153 µM) | 128 (≈ 153 µM) | 128 (≈ 153 µM) | 4 (≈ 4.78 µM) | 4 (≈ 4.78 µM) | 4 (≈ 4.78 µM) | 8 (≈ 9.57 µM) | > 64 | 12 (≈ 14.4 µM) | 270000 | 25 (≈ 29.9 µM) | 2 | 256 |  |  |  |  |  |
| CC[C@H]1OC(=O)[C@@](C)(F)C(=O)[C@H](C)[C@@H](O[C@@H]2O[C@H](C)C[C@H](N(C)C)[C@H]2O)[C@](C)(OC)C[C@@H](C)C(=O)[C@H](C)[C@H]2N(CCCCn3cc(-c4cccs4)nn3)C(=O)O[C@]12C | 49 (≈ 0.0586 µM) | ≤ 0.0625 | 32 (≈ 38.3 µM) | 8 (≈ 9.57 µM) | 8 (≈ 9.57 µM) | 2 (≈ 2.39 µM) | 1 (≈ 1.2 µM) | 1 (≈ 1.2 µM) | 32 (≈ 38.3 µM) | > 64 | 6.5 (≈ 7.77 µM) |  |  | 4 |  |  |  |  |  |  |
| CC[C@H]1OC(=O)[C@@](C)(F)C(=O)[C@H](C)[C@@H](O[C@@H]2O[C@H](C)C[C@H](N(C)C)[C@H]2O)[C@](C)(OC)C[C@@H](C)C(=O)[C@H](C)[C@H]2N(CCCCn3cc(-c4cnc(N)s4)nn3)C(=O)O[C@]12C | 24 (≈ 0.0282 µM) | 0.25 (≈ 0.293 µM) | 64 (≈ 75.1 µM) | 64 (≈ 75.1 µM) | 64 (≈ 75.1 µM) | 2 (≈ 2.35 µM) | 1 (≈ 1.17 µM) | 1 (≈ 1.17 µM) | > 32 | > 32 | > 50 |  |  |  |  |  |  |  |  |  |
| CC[C@H]1OC(=O)[C@@](C)(F)C(=O)[C@H](C)[C@@H](O[C@@H]2O[C@H](C)C[C@H](N(C)C)[C@H]2O)[C@](C)(OC)C[C@@H](C)C(=O)[C@H](C)[C@H]2N(CCCCn3cc(-c4cc(OC)cc([N+](=O)[O-])c4)nn3)C(=O)O[C@]12C | 1.5 (≈ 0.00166 µM) | ≤ 0.0625 | 64 (≈ 70.7 µM) | 32 (≈ 35.4 µM) | 32 (≈ 35.4 µM) | 4 (≈ 4.42 µM) | 2 (≈ 2.21 µM) | 2 (≈ 2.21 µM) | 16 (≈ 17.7 µM) | 8 (≈ 8.84 µM) | 50 (≈ 55.2 µM) |  |  |  | 16 | 2 | 4 |  |  |  |
| CC[C@H]1OC(=O)[C@@](C)(F)C(=O)[C@H](C)[C@@H](O[C@@H]2O[C@H](C)C[C@H](N(C)C)[C@H]2O)[C@](C)(OC)C[C@@H](C)C(=O)[C@H](C)[C@H]2N(CCCCn3cc(-c4ccc(N)cc4)nn3)C(=O)O[C@]12C | 24 (≈ 0.0284 µM) | ≤ 0.031 | 16 (≈ 18.9 µM) | 8 (≈ 9.47 µM) | 16 (≈ 18.9 µM) | 1 (≈ 1.18 µM) | 1 (≈ 1.18 µM) | 4 (≈ 4.73 µM) | 16 (≈ 18.9 µM) | > 32 | 25 (≈ 29.6 µM) |  |  |  |  | 2 |  | 2 | 2 |  |
| CC[C@H]1OC(=O)[C@H](C)[C@@H](O[C@H]2C[C@@](C)(OC)[C@@H](O)[C@H](C)O2)[C@H](C)[C@@H](O[C@@H]2O[C@H](C)C[C@H](N(C)C)[C@H]2O)[C@](C)(O)C[C@@H](C)C(=O)[C@H](C)[C@@H](O)[C@]1(C)O [ERYTHROMYCIN] | 12000 (≈ 16.4 µM) |  |  |  |  |  |  |  |  |  |  |  |  |  |  |  |  |  |  |  |
| CC[C@H]1OC(=O)[C@@](C)(F)C(=O)[C@H](C)[C@@H](O[C@@H]2O[C@H](C)C[C@H](N(C)C)[C@H]2O)[C@](C)(OC)C[C@@H](C)C(=O)[C@H](C)[C@H]2N(CCCCn3cc(-c4cccc(NC(C)=O)c4)nn3)C(=O)O[C@]12C | 24 (≈ 0.0271 µM) | 0.016 (≈ 0.018 µM) | > 128 | 64 (≈ 72.1 µM) | 64 (≈ 72.1 µM) | 4 (≈ 4.51 µM) | 4 (≈ 4.51 µM) | 8 (≈ 9.02 µM) | 64 (≈ 72.1 µM) | > 64 | 50 (≈ 56.4 µM) |  |  |  |  |  |  |  |  | 4 - 8 |
| CC[C@H]1OC(=O)[C@@](C)(F)C(=O)[C@H](C)[C@@H](O[C@@H]2O[C@H](C)C[C@H](N(C)C)[C@H]2O)[C@](C)(OC)C[C@@H](C)C(=O)[C@H](C)[C@H]2N(CCCCn3cc(-c4ccc(OC)cc4)nn3)C(=O)O[C@]12C | 1.5 (≈ 0.00174 µM) | ≤ 0.0625 | > 128 | 32 (≈ 37.2 µM) | 32 (≈ 37.2 µM) | 2 (≈ 2.33 µM) | 2 (≈ 2.33 µM) | 2 (≈ 2.33 µM) | 64 (≈ 74.4 µM) | > 64 | 25 (≈ 29.1 µM) |  |  |  | 16 |  |  |  |  |  |
| CC[C@H]1OC(=O)[C@@](C)(F)C(=O)[C@H](C)[C@@H](O[C@@H]2O[C@H](C)C[C@H](N(C)C)[C@H]2O)[C@](C)(OC)C[C@@H](C)C(=O)[C@H](C)[C@H]2N(CCCCn3cc(COc4ccccc4)nn3)C(=O)O[C@]12C | 12 (≈ 0.014 µM) | ≤ 0.0625 | 64 (≈ 74.4 µM) | 8 (≈ 9.3 µM) | 4 (≈ 4.65 µM) | 2 (≈ 2.33 µM) | 4 (≈ 4.65 µM) | 4 (≈ 4.65 µM) | > 32 | > 32 | 25 (≈ 29.1 µM) |  |  |  | 2 |  |  |  |  |  |
| CC[C@H]1OC(=O)[C@@](C)(F)C(=O)[C@H](C)[C@@H](O[C@@H]2O[C@H](C)C[C@H](N(C)C)[C@H]2O)[C@](C)(OC)C[C@@H](C)C(=O)[C@H](C)[C@H]2N(CCCCn3cc(-c4cccc(N)c4)nn3)C(=O)O[C@]12C [SOLITHROMYCIN] | 24 (≈ 0.0284 µM) | 0.06 to 0.12 (≈ 0.071 to 0.142 µM) | 8 (≈ 9.47 µM) | 4 (≈ 4.73 µM) | 4 (≈ 4.73 µM) | 2 (≈ 2.37 µM) | 2 (≈ 2.37 µM) | 4 (≈ 4.73 µM) | > 32 | > 32 | 25 (≈ 29.6 µM) |  |  |  |  |  |  |  |  |  |
| CC[C@H]1OC(=O)[C@@](C)(F)C(=O)[C@H](C)[C@@H](O[C@@H]2O[C@H](C)C[C@H](N(C)C)[C@H]2O)[C@](C)(OC)C[C@@H](C)C(=O)[C@H](C)[C@H]2N(CCCCn3cc(-c4cc(O)cc([N+](=O)[O-])c4)nn3)C(=O)O[C@]12C | 0.0059 (≈ 6.62e-06 µM) | ≤ 0.0625 | 16 (≈ 18 µM) | 4 (≈ 4.49 µM) | 8 (≈ 8.98 µM) | 0.5 (≈ 0.561 µM) | 8 (≈ 8.98 µM) | 4 (≈ 4.49 µM) | 32 (≈ 35.9 µM) | > 32 | 25 (≈ 28.1 µM) | 2e+06 | 12 (≈ 13.5 µM) |  | 4096 |  |  | 4 |  |  |
